This passage reports IC50 and inhibition in vivo results from patent US20070054899A1 (priority 2003, published 2007).

Where two headings read alike, the source gives them in different places.

In assay [1] the target is T1, aromatase (microsomes from the human placenta) (Homo sapiens, UniProt P11511).
T1 construct: using microsomes from the human placenta as source of the enzyme; from tissue; host or cells: human placenta microsomes
T1 sequence (P11511 1-503): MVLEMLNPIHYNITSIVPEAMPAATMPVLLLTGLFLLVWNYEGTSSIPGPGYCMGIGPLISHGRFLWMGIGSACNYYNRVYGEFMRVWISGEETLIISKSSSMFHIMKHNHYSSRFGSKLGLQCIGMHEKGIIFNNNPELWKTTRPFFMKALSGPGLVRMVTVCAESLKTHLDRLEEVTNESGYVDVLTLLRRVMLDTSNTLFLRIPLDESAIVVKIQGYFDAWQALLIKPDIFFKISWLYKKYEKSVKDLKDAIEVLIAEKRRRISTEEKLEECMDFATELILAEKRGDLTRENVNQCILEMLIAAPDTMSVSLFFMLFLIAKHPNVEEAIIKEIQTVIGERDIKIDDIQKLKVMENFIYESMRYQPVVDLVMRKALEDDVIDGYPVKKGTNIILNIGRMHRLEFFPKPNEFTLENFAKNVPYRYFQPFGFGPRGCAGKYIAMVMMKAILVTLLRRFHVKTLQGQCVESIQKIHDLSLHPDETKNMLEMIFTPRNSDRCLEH
The assay is described as follows: Aromatase inhibition in vitro, tritiated water method, human placenta microsomes. Format: biochemical.

In a further assay the target is aromatase (e) (UniProt O46512). The format is biochemical. The note with it: value marked (e); read-out: Activity In vitro IC50(nM), (e).
aromatase (e), sequence (O46512 whole entry): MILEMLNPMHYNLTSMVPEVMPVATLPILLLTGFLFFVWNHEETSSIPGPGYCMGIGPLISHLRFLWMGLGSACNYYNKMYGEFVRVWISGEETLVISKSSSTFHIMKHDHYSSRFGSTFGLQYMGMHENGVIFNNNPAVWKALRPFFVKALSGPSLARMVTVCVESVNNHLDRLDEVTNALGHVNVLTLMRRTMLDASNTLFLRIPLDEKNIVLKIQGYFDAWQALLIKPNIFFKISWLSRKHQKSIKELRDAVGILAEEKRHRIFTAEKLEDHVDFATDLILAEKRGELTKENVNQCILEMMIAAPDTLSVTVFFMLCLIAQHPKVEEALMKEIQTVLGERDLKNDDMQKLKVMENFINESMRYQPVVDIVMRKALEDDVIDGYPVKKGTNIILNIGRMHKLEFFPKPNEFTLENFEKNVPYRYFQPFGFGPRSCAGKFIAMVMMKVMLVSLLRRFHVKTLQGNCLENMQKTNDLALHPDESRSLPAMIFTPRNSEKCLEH
Assay [2] deals with uterine hypertrophy induced by androstenedione. The assay is described as follows: Activity in vivo: inhibition of uterine hypertrophy induced by androstenedione. Set-up: species or system rat (Sprague-Dawley). The note with it: Rattus norvegicus, 96 h, immature female rats, androstenedione 30 mg/kg for 4 days, read-out: % inhibition to doses (μg/Kg); for inhibition in vivo at 0.001 mg/kg: dose 1 μg/Kg; for inhibition in vivo at 0.01 mg/kg: dose 10 μg/Kg; for inhibition in vivo at 0.1 mg/kg: dose 100 μg/Kg; for inhibition in vivo at 0.003 mg/kg: dose 3 μg/Kg; for inhibition in vivo at 1 mg/kg: dose 1000 μg/Kg. Here is the method: The activity in vivo of aromatase inhibition by compounds of formula (I) according to the invention has been tested according to the model established by Bharnagar et al. (1990).
In general, immature female rats of the Sprague-Dawley line of a weight ranging from 40 to 50 g have been treated with a dose of androstenedione at 30 mg/kg for 4 days, in the absence or in the presence of doses of various compounds of formula (I).
Four hours after administration of an aromatase inhibitor, the rats were sacrificed. Their uteruses were removed, cleared of adhering fat and conjunctive tissue, next the uteruses were weighed (wet weight). The dry weight of the uteruses was determined the following day after a step of drying for one night at 80° C.

Where [3] appears, read: value marked (h), read-out: Activity In vitro IC50(nM), (h).
[4] abbreviates: value without (h)/(e) mark, read-out: Activity In vitro IC50.

As for `Cn1c(=O)oc2cc(C(c3ccccc3)n3cnnc3)ccc21` (stereo not drawn), the IC50 in assay [1] (setting [3]) was > 3000 nM.

In the case of “5-[(4-Cyanophenyl)(1H-1,2,4-triazol-1-yl)methyl]-6-methoxy-1,3-benzoxazol-2(3H)-one [GCA37]”, the half-inhibitory concentration (IC50) in assay [1] (setting [4]) was 328 nM.

In the case of `Cn1c(=O)sc2cc(C(c3ccccc3)n3ccnc3)ccc21` (racemic) [(E1)PCH28], on aromatase (e), the IC50 is 24.9 nM.

As to `Cn1c(=O)sc2cc(C(c3ccccc3)n3ccnc3)ccc21` (racemic) [(E2) PCH28], the IC50 on aromatase (e) came to 22.6 nM.

Take `Cn1c(=O)sc2cc(C(c3ccc(C#N)cc3)n3ccnc3)ccc21` (racemic) [PCH165 (+)CD4]: the IC50 in assay [1] (setting [4]) was found to be 8.81 nM.

With `Cn1c(=O)sc2cc(C(c3ccc(C#N)cc3)n3ccnc3)ccc21` (racemic) [PCH165 (+/−) CD4], in assay [2], the inhibition in vivo at 0.001 mg/kg came out at 22%, the inhibition in vivo at 0.01 mg/kg amounted to 23% and the inhibition in vivo at 0.1 mg/kg was found to be 66%. The IC50 in assay [1] (setting [4]) is 4.54 nM.

As for `Cn1c(=O)sc2cc(C(c3ccc(C#N)cc3)n3ccnc3)ccc21` (racemic) [PCH165 (−)CD4], the IC50 in assay [1] (setting [4]) was 4.94 nM.

With `COc1cc2oc(=O)[nH]c2cc1C(c1ccc(C#N)cc1)n1ccnc1` (stereo not drawn) [GCA36], the 50% inhibitory concentration (IC50) in assay [1] (setting [4]) was 19.9 nM.

`N#Cc1ccc(C(c2ccc(C#N)cc2)n2cncn2)cc1` [Letrozole, reference compound]: in assay [2], the inhibition in vivo at 0.001 mg/kg amounted to 66%, the inhibition in vivo at 0.003 mg/kg turned out to be 74% and the inhibition in vivo at 0.01 mg/kg worked out at 90%. Moreover, the inhibition in vivo at 0.005 mg/kg in assay [2] (dose 5 μg/Kg) was found to be 91%.

Regarding `N#Cc1ccc(C(c2ccc3oc(=O)[nH]c3c2)n2ccnc2)cc1` (stereo not drawn) [PC11128], in assay [2], the inhibition in vivo at 0.001 mg/kg turned out to be 29%, the inhibition in vivo at 0.01 mg/kg amounted to 29% and the inhibition in vivo at 0.1 mg/kg was 53%. For the same molecule, the 50% inhibitory concentration (IC50) in assay [1] (setting [4]) was found to be 5.83 nM.

With `O=c1[nH]c2cc(C(c3ccncc3)n3ccnc3)ccc2o1` (stereo not drawn) [PC11129], in assay [1] (setting [4]), the IC50 was 26.8 nM.

As for `N#Cc1ccc(C(c2ccc3[nH]c(=O)sc3c2)n2ccnc2)cc1` (stereo not drawn) [PC11215], in assay [2], the inhibition in vivo at 0.001 mg/kg is 0%, the inhibition in vivo at 0.01 mg/kg is 56% and the inhibition in vivo at 0.1 mg/kg was 90%. For the same molecule, the IC50 in assay [1] (setting [4]) turned out to be 4.04 nM.

Turning to `Cn1c(=O)oc2cc(C(c3ccc(Cl)cc3)n3ccnc3)ccc21` (stereo not drawn) [PCH15, 6-[(4-Chlorophenyl)(1H-imidazol-1-yl)methyl]-3-methyl-1,3-benzoxazol-2(3H)-one], the IC50 in assay [1] (setting [3]) was > 2000 nM.

Consider `Cn1c(=O)oc2cc(C(c3ccccc3)n3cncn3)ccc21` (stereo not drawn) [PCH20, 3-Methyl-6-[phenyl(1H-1,2,4-triazol-1-yl)methyl]-1,3-benzoxazol-2(3H)-one], for which the 50% inhibitory concentration (IC50) in assay [1] (setting [3]) is > 3000 nM.

As to `O=c1[nH]c2cc(C(c3ccccc3)n3cncn3)ccc2s1` (stereo not drawn) [PCH132], in assay [1] (setting [4]), the half-maximal inhibitory concentration (IC50) worked out at 178 nM.

Turning to `Cn1c(=O)sc2ccc(C(c3ccccc3)n3cncn3)cc21` (stereo not drawn) [PCH134], in assay [1] (setting [4]), the IC50 came out at 179 nM.

With `Cn1c(=O)sc2cc(C(c3ccc(C#N)cc3)n3cncn3)ccc21` (stereo not drawn) [PCH158], in assay [2], the inhibition in vivo at 0.001 mg/kg was 54% and the inhibition in vivo at 0.01 mg/kg is 56%. In assay [1] (setting [4]), the IC50 was 8.71 nM.

As for `Cn1c(=O)oc2ccc(C(c3ccc(Cl)cc3)n3cncn3)cc21` (stereo not drawn) [PCH160, 5-[(4-Chlorophenyl)(1H-1,2,4-triazol-1-yl)methyl]-3-methyl-1,3-benzoxazol-2(3H)-one], in assay [1] (setting [4]), the half-inhibitory concentration (IC50) was 18.7 nM.

Regarding `Cn1c(=O)oc2ccc(C(c3ccccc3)n3cncn3)cc21` (stereo not drawn) [PCH183, 3-Methyl-5-[1H-1,2,4-triazol-1-yl(phenyl)methyl]-1,3-benzoxazol-2(3H)-one], in assay [1] (setting [4]), the IC50 amounted to 1810 nM.

As to `O=c1[nH]c2cc(C(c3ccc(Cl)cc3)n3cncn3)ccc2o1` (stereo not drawn) [PCH195], the 50% inhibitory concentration (IC50) in assay [1] (setting [4]) was 17.1 nM.

Consider `Cn1c(=O)oc2ccc(C(c3ccc(Cl)cc3)n3cncn3)cc21` (stereo not drawn) [PCH196], for which, in assay [1] (setting [4]), the IC50 worked out at 24.9 nM.

Turning to `O=C1COc2cc(C(c3ccccc3)n3ccnc3)ccc2N1` (stereo not drawn) [PCH211], in assay [1] (setting [4]), the IC50 is 74.4 nM.

On to `CN1C(=O)COc2ccc(C(c3ccccc3)n3ccnc3)cc21` (stereo not drawn) [PCH213], for which, in assay [2], the inhibition in vivo at 0.001 mg/kg stood at 0%, the inhibition in vivo at 0.01 mg/kg is 3% and the inhibition in vivo at 0.1 mg/kg was 5%. Besides, the IC50 in assay [1] (setting [4]) came out at 5.64 nM.

As for `O=C1COc2ccc(C(c3ccccc3)n3ccnc3)cc2N1` (stereo not drawn) [PCH218], the IC50 in assay [1] (setting [4]) came to 65.5 nM.

On to `CN1C(=O)COc2ccc(C(c3ccc(C#N)cc3)n3ccnc3)cc21` (stereo not drawn) [PCH222], for which, in assay [2], the inhibition in vivo at 0.001 mg/kg was 0%, the inhibition in vivo at 0.003 mg/kg is 22% and the inhibition in vivo at 0.01 mg/kg was 32%. The IC50 in assay [1] (setting [4]) came out at 3.44 nM.

As to `CN1C(=O)COc2ccc(C(c3ccc(C#N)cc3)n3cncn3)cc21` (stereo not drawn) [PCH223], in assay [2], the inhibition in vivo at 0.001 mg/kg stood at 4%, the inhibition in vivo at 0.01 mg/kg was found to be 22% and the inhibition in vivo at 0.1 mg/kg stood at 66%.

On to `N#Cc1ccc(C(c2ccc3c(c2)NC(=O)CO3)n2ccnc2)cc1` (stereo not drawn) [PCH225], for which the IC50 in assay [1] (setting [4]) worked out at 9.9 nM.

Turning to `O=C1CSc2cc(C(c3ccccc3)n3ccnc3)ccc2N1` (stereo not drawn) [PCH227, 7-[1H-Imidazol-1-yl(phenyl)methyl]-1,4-benzothiazin-3(4H)-one], the concentration for half-maximal inhibition (IC50) in assay [1] (setting [4]) was 55.1 nM.

Turning to `N#Cc1ccc(C(c2ccc3c(c2)SCC(=O)N3)n2ccnc2)cc1` (stereo not drawn) [PCH229], in assay [2], the inhibition in vivo at 0.01 mg/kg stood at 11%, the inhibition in vivo at 0.1 mg/kg was determined as 42% and the inhibition in vivo at 1 mg/kg was found to be 83%. Further, the IC50 in assay [1] (setting [4]) turned out to be 13.8 nM.

For `N#Cc1ccc(C(c2ccc3c(c2)SCC(=O)N3)n2cncn2)cc1` (stereo not drawn) [PCH230], in assay [2], the inhibition in vivo at 0.01 mg/kg was 2%, the inhibition in vivo at 0.1 mg/kg is 22% and the inhibition in vivo at 1 mg/kg amounted to 74%. Besides, the IC50 in assay [1] (setting [4]) was found to be 34.8 nM.

Turning to `CN1C(=O)CSc2cc(C(c3ccc(C#N)cc3)n3cncn3)ccc21` (stereo not drawn) [PCH231], the IC50 in assay [1] (setting [4]) came to 56.6 nM.

As to `CN1C(=O)CSc2cc(C(c3ccc(C#N)cc3)n3ccnc3)ccc21` (stereo not drawn) [PCH240], the 50% inhibitory concentration (IC50) in assay [1] (setting [4]) amounted to 5.38 nM.

As for `CCn1c(=O)sc2cc(C(c3ccc(C#N)cc3)n3ccnc3)ccc21` (stereo not drawn) [PCH241], in assay [2], the inhibition in vivo at 0.001 mg/kg was found to be 18%, the inhibition in vivo at 0.003 mg/kg is 37% and the inhibition in vivo at 0.01 mg/kg was determined as 16%. The IC50 in assay [1] (setting [4]) was found to be 4.29 nM.

With `CCn1c(=O)sc2cc(C(c3ccc([N+](=O)[O-])cc3)n3cncn3)ccc21` (stereo not drawn) [PCH243, 3-Ethyl-6-[(4-nitrophenyl)(1H-1,2,4-triazol-1-yl)methyl]-1,3-benzothiazol-2(3H)-one], the half-maximal inhibitory concentration (IC50) in assay [1] (setting [4]) is 3.99 nM.

Turning to `Cn1c(=O)sc2cc(C(c3ccc(C#N)cc3)n3cnnn3)ccc21` (stereo not drawn) [PCH248], in assay [1] (setting [4]), the IC50 came to 11.8 nM.

With `Cn1c(=O)sc2cc(C(c3cccc(C#N)c3)n3cncn3)ccc21` (stereo not drawn) [PCH258], the IC50 in assay [1] (setting [4]) was 31.7 nM.

In the case of `Cn1c(=O)sc2cc(C(c3ccc([N+](=O)[O-])cc3)n3cncn3)ccc21` (stereo not drawn) [PCH259], in assay [2], the inhibition in vivo at 0.001 mg/kg amounted to 31%, the inhibition in vivo at 0.01 mg/kg turned out to be 63% and the inhibition in vivo at 0.1 mg/kg came out at 88%. In addition, the concentration for half-maximal inhibition (IC50) in assay [1] (setting [4]) stood at 3.05 nM.

Regarding `CCn1c(=O)sc2cc(C(c3ccc(C#N)cc3)n3cncn3)ccc21` (stereo not drawn) [PCH260], in assay [2], the inhibition in vivo at 0.001 mg/kg was 32%, the inhibition in vivo at 0.01 mg/kg is 50% and the inhibition in vivo at 0.1 mg/kg came out at 90%. Also, in assay [1] (setting [4]), the IC50 is 4.49 nM.
